For series [1], the system named is TNF-α mRNA. Nature of the series: TNF-α mRNA expression in human macrophage cell line THP-1 (real-time RT-PCR). It counts as cell-based. The method, then: (§1) The mouse macrophage cell line, RAW 264.7 (American Tissue Type Culture Collection (ATCC); Manassas, Va.), was cultured in Dulbucco's modified Eagle's medium (DMEM; ATCC) supplemented with 10% heat inactivated fetal calf serum […] (Invitrogen; Carlsbad, Calif.), 100 μg/ml streptomycin and 100 U/ml penicillin (Invitrogen), and 2 mM L-glutamine (Invitrogen). The human T cell line, Jurkat clone E6-1 (ATCC) was cultured in RPMI-1640 medium (Invitrogen) supplemented as described above. The human monocyte cell line, THP-1 (ATCC) was cultured much like the Jurkat cultures plus the addition of 1 mM sodium pyruvate (Gibco-Invitrogen). THP-1 cells were stimulated with 200 nM of phorbol 12-myristate 13-acetate (PMA; Sigma-Aldrich, St. Louis, Mo.) for 48 hours to differentiate the cells into macrophage-like cells. Cells were then washed three times every 24 hours with fresh medium.
(§2) Dose response experiments were performed following exposure of the RAW 264.7, Jurkat, and THP-1 cells to varying doses of creatinine HCl ([…]; Sigma-Aldrich). Control cultures contained no creatinine HCl, only growth medium. A dose of 10 mM creatinine HCl was chosen for use in these studies. The 10 mM concentration is physiologically relevant to individuals supplementing with 5 grams of creatine for their regimen and then converted into creatinine.
RAW, Jurkat, and THP-1 cells were treated in 6-well plates at 80-90% confluent (4.14×10^6 cells/ml, 2.6×10^7 cells/ml, and 5.26×10^5 cells/ml, respectively). All cells were lysed in 1 ml of Trizol (Invitrogen). After homogenization, chloroform was added to samples and nucleic acids extracted per the manufacturer's instructions. Nucleic acids were precipitated with isopropyl alcohol (Fisher, Pittsburgh, Pa.). Following centrifugation, the resulting pellets were washed with 75% ethanol and air dried. […] After centrifugation, the samples were washed with 75% ethanol, air dried, and resuspended in 20 μl of UltraPure distilled water (Invitrogen) and stored at −80° C. until time of use, RNA was quantified using a NanoDrop-1000 Spectrophotometer with the program ND-1000 V3.8.1 (Thermo Fisher Scientific, Wilmington, Del.). […]
The PCR was performed using the following conditions: 95° C. for 30 sec, 40 cycles of 95° C. for 5 sec, and 57° C. for 5 sec using a CFX96 Real-Time Detection System (Bio-Rad), GAPDH was used as a housekeeping gene to normalize mRNA levels between samples. Data was analyzed using the Bio-Rad CFX Manager V1.6.541.1028 software (Bio-Rad). […] Copy numbers of targeted mRNAs were expressed as ratios of GAPDH mRNA levels. Relative quantitation was determined by the comparative CT method (ΔΔCT method) in which the formula is expressed as: 2^−ΔΔCT(1).
RT-PCR data was analyzed by two-way analysis of variance (ANOVA) with a Bonferroni's post-test. […]
(In general: Real-time PCR tracks product formation cycle by cycle.)

For series [2], the system named is TNF-α mRNA. As to the kind of experiment: TNF-α mRNA expression in mouse macrophage cell line RAW 264.7 (real-time RT-PCR). It counts as cell-based. The method, then: as §1, §2
(§3) RAW, Jurkat, and THP-1 cells were treated in 6-well plates at 80-90% confluent (4.14×10^6 cells/ml, 2.6×10^7 cells/ml, and 5.26×10^5 cells/ml, respectively). All cells were lysed in 1 ml of Trizol (Invitrogen). After homogenization, chloroform was added to samples and nucleic acids extracted per the manufacturer's instructions. Nucleic acids were precipitated with isopropyl alcohol (Fisher, Pittsburgh, Pa.). Following centrifugation, the resulting pellets were washed with 75% ethanol and air dried. RNA was re-suspended in 50 μl of UltraPure distilled water (Invitrogen). Residual DNA was removed from the samples by treatment with RQ1 DNase (Promega, Madison, Wis.) at 37° C. for 1 hour per the manufacturer's protocol. Samples were extracted with phenol:chloroform:[…] alcohol (25:24:1) (Invitrogen) and the RNA was precipitated with 1/10 volume of 3M sodium acetate (pH=5.2) and 3 volumes of 100% ethanol. Samples were frozen at […] for a minimum of 2 hours. After centrifugation, the samples were washed with 75% ethanol, air dried, and resuspended in 20 μl of UltraPure distilled water (Invitrogen) and stored at −80° C. until time of use, RNA was quantified using a NanoDrop-1000 Spectrophotometer with the program ND-1000 V3.8.1 (Thermo Fisher Scientific, Wilmington, Del.).
(§4) Reverse transcription (Improm-II Reverse Transcription System, Promega) followed by real-time PCR analysis was performed in 20 μL volumes containing 1 μl of cDNA corresponding to 40 ng of DNase-treated RNA in the RT reaction, gene specific internal primers (0.5 μM of each primer), and 1× SsoFast EvaGreen Supermix (Bio-Rad, Hercules, Calif.). The primers were synthesized by Integrated DNA Technologies (IDT, Coralville, Iowa) and have 100% sequence homology to the […] or human genome. The primer sequences are listed below in Table 1.
(§5) The PCR was performed using the following conditions: 95° C. for 30 sec, 40 cycles of 95° C. for 5 sec, and 57° C. for 5 sec using a CFX96 Real-Time Detection System (Bio-Rad), GAPDH was used as a housekeeping gene to normalize mRNA levels between samples. Data was analyzed using the Bio-Rad CFX Manager V1.6.541.1028 software (Bio-Rad). The calibrator in the experiments was the sample obtained from control-treated cells. Copy numbers of targeted mRNAs were expressed as ratios of GAPDH mRNA levels. Relative quantitation was determined by the comparative CT method (ΔΔCT method) in which the formula is expressed as: 2^−ΔΔCT(1).
(§6) RT-PCR data was analyzed by two-way analysis of variance (ANOVA) with a Bonferroni's post-test. P values≤0.05 were considered statistically significant. […]

Another series relates to TLR-2. The note with it: mouse macrophages; cited from earlier work.
In a further series the test system is mouse macrophages. As to conditions: cited from earlier work.
In series [3] the test system is TNF-α mRNA. As to the kind of experiment: TNF-α mRNA expression in human T cell line Jurkat clone E6-1 (real-time RT-PCR). Type of series: cell-based. On the procedure:
as §1, §2, §3, §4, §5, §6

In another series the test system is fungi. As to conditions: cited from earlier work.
The subject of series [4] is Gram negative and Gram positive bacteria. As to conditions: addition to a growth medium; cited from earlier work.
The subject of series [5] is vancomycin resistant Enterococcus faecium (“VRE”). The note with it: addition to a growth medium; cited from earlier work.
A further series deals with TNF-α protein. Nature of the series: Immunohistochemical staining of TNF-α protein expression in mouse macrophage cells (RAW 264.7). It counts as cell-based. As to conditions: 10 mM. The method, then:
as §1
RAW cells were incubated with or without 10 mM creatinine (Sigma-Aldrich) for 24 or 48 hours. Staining was performed on cytospins which were fixed in cold acetone, air-dried, and rehydrated in phosphate buffered saline (PBS). Blocking was performed at room temperature for 20 minutes, followed by incubation with purified rat anti-mouse TNF-α antibody (BD Biosciences, San Diego, Calif.) overnight. […]

In series [6] the test system is drug resistant Staphylococcus aureus (“MRSA”). The note with it: addition to a growth medium; cited from earlier work.
The subject of the next series is TLR-7. As to conditions: mouse macrophages; cited from earlier work.
A further series has as its system TLR-4. As to conditions: mouse macrophages; cited from earlier work.
Another series deals with TLR-3. As to conditions: mouse macrophages; cited from earlier work.
For series [7] the following is noted: rats, acute or chronic inflammation induced by inflammatory agents, different doses; cited from earlier work.

Some results are limits rather than exact numbers.

Take `CN1CC(=O)N=C1N.Cl` [creatinine HCl, creatinine hydrochloride]: the “TNF-α mRNA levels, of the control levels” value was found to be 41% in the series on TNF-α mRNA [1] (10 mM, 10 minutes post-exposure, THP-1) and 50% in the series with TNF-α mRNA [1] (10 mM, 60 minutes post-exposure, THP-1). The “TNF-α mRNA levels” value in the series on TNF-α mRNA [1] (10 mM, 20 minutes post-exposure, THP-1) is reported as “remained below those of control-treated cells”; in the series with TNF-α mRNA [2] (10 mM, 40 minutes post-exposure, RAW 264.7), “began to increase”; in the series on TNF-α mRNA [3] (10 mM, 30 minutes post-exposure, Jurkat) it was “began increasing”; in the series on TNF-α mRNA [3] (10 mM, 60 minutes post-exposure, Jurkat) it was “control levels”. For the same molecule, the “TNF-α mRNA as compared to the control (100%)” value in the series on TNF-α mRNA [2] (10 mM, 10 minutes post-exposure, RAW 264.7) is listed as 28%; with TNF-α mRNA [2] (10 mM, 20 minutes post-exposure, RAW 264.7) it was 13%; with TNF-α mRNA [2] (10 mM, 60 minutes post-exposure, RAW 264.7), 47%. For the same molecule, the “decrease of TNF-α mRNA expression in mouse macrophages” value with TNF-α mRNA [2] (about 10 mM, about 10 minutes post-treatment) is at least 72%. In the series on TNF-α mRNA [2] (about 10 mM, about 20 minutes post-treatment), the “reduction of TNF-α mRNA expression in mouse macrophages” value was at most 87%. Moreover, the TLR-2 transcript levels entry in the series with TLR-2 is “reduced”. The cell death entry with mouse macrophages was “No alterations”. Besides, the “TNF-α mRNA levels, of the control level” value in the series with TNF-α mRNA [3] (10 mM, 20 minutes post-exposure, Jurkat) is on record as 25%. For the same molecule, the “TNF-α mRNA levels compared to the levels of control” value in the series on TNF-α mRNA [3] (10 mM, within 10 minutes of exposure, Jurkat) is 50%. The “reduction of mRNA levels in human T cells” value with TNF-α mRNA [3] (about 10 mM, 20 minutes post-treatment) was at most 75%. The growth of fungi entry with fungi was “does not affect”. Besides, the “bacteria in growth medium” value in series [4], in [5] and in series [6] was “decreased” each time. The “TNF-α protein signal (immunohistochemical staining) compared to control-treated cells” value with TNF-α protein (24 hours incubation) and in the series on TNF-α protein (48 hours incubation) was “lower signals” throughout. In addition, the TLR-7 transcript levels entry with TLR-7 is “reduced”. Further, the TLR-4 transcript levels entry in the series on TLR-4 is given as “reduced”. In addition, in the series on TLR-3, the TLR-3 transcript levels entry was “reduced”.

In the case of `CN1CC(=O)N=C1N` [creatinine], the Edema result in [7] is given as “decreased”.

lipopolysaccharide [reference compound]: the “TNF-α mRNA expression” value was “significant increase” in the series on TNF-α mRNA [1] (positive control, THP-1, not shown in graphs); “significant increase” in the series on TNF-α mRNA [2] (positive control, RAW 264.7, not shown in graphs); “significant increase” in the series on TNF-α mRNA [3] (positive control, Jurkat, not shown in graphs).

Values taken from patent US9993452B2, “Compositions and methods for treatment of inflammation” (Vireo Systems, Inc., priority 2014, dated 2018).
